# Results as given in ChEMBL document CHEMBL1201862, “PubChem BioAssay data set” (2004).
#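 Method: 48-hour compound exposure of cells in 96-well plates, five concentrations, linear interpolation of endpoints. GI50: concentration for 50% inhibition of growth.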 Activity calls are given as the source filed them. Cut-off read from the data, not from the text of the source: active = GI50 up to about 1.1 µM and inactive = higher.
# Assays:
# Assay in all cases: inhibition of tumour cell growth, NCI panel, 48 h
# A498 = tested on: A498
# RXF 393 = tested on: RXF 393
# A549 = tested on: A549
# SN12C = tested on: SN12C
# KM12 = tested on: KM12
# HCT-15 = tested on: HCT-15
# HCC 2998 = tested on: HCC 2998
# NCI-H226 = tested on: NCI-H226
# HCT-116 = tested on: HCT-116
# HOP-92 = tested on: HOP-92
# MOLT-4 = tested on: MOLT-4
# SK-OV-3 = tested on: SK-OV-3
# NCI-H460 = tested on: NCI-H460
# SNB-19 = tested on: SNB-19
# MDA-MB-435 = tested on: MDA-MB-435
# T47D = tested on: T47D
# SF-268 = tested on: SF-268
# LOX IMVI = tested on: LOX IMVI
# UACC-62 = tested on: UACC-62
# SR = tested on: SR
# U-251 = tested on: U-251
# OVCAR-3 = tested on: OVCAR-3
# DU-145 = tested on: DU-145
# SF-295 = tested on: SF-295
# SK-MEL-5 = tested on: SK-MEL-5
# OVCAR-5 = tested on: OVCAR-5
# UACC-257 = tested on: UACC-257
# OVCAR-4 = tested on: OVCAR-4
# 786-0 = tested on: 786-0
# ACHN = tested on: ACHN
# MDA-N = tested on: MDA-N
# NCI-H522 = tested on: NCI-H522
# Hs-578T = tested on: Hs-578T
# Malme-3M = tested on: Malme-3M
# MCF7 = tested on: MCF7
# CCRF-CEM = tested on: CCRF-CEM
# M14 = tested on: M14
# CAKI-1 = tested on: CAKI-1
# EKVX = tested on: EKVX
# UO-31 = tested on: UO-31
# BT-549 = tested on: BT-549
# IGROV-1 = tested on: IGROV-1
# PC-3 = tested on: PC-3
# MDA-MB-231 = tested on: MDA-MB-231
# RPMI-8226 = tested on: RPMI-8226
# OVCAR-8 = tested on: OVCAR-8
# TK-10 = tested on: TK-10
# SF-539 = tested on: SF-539
# NCI/ADR-RES = tested on: NCI/ADR-RES
# HT-29 = tested on: HT-29
# SK-MEL-2 = tested on: SK-MEL-2
# HL-60 = tested on: HL-60
# NCI-H23 = tested on: NCI-H23
# HOP-62 = tested on: HOP-62
# K562 = tested on: K562
# COLO 205 = tested on: COLO 205
# SK-MEL-28 = tested on: SK-MEL-28
# SNB-75 = tested on: SNB-75
# SW-620 = tested on: SW-620
structure (smiles),measurement,setting,value
COc1ccc(C2=Nn3c(C)nnc3S/C2=C\c2ccc(-c3ccc([N+](=O)[O-])cc3)o2)cc1,GI50,A498,31.2 µM (inactive)
same,GI50,RXF 393,9.31 µM (inactive)
same,GI50,A549,20 µM (inactive)
same,GI50,SN12C,11 µM (inactive)
same,GI50,KM12,16.1 µM (inactive)
same,GI50,HCT-15,10.9 µM
same,GI50,HCC 2998,7.41 µM (inactive)
same,GI50,NCI-H226,27.2 µM (inactive)
same,GI50,HCT-116,11 µM (inactive)
same,GI50,HOP-92,22.5 µM (inactive)
same,GI50,MOLT-4,3.56 µM (inactive)
same,GI50,SK-OV-3,64.1 µM (inactive)
same,GI50,NCI-H460,14.9 µM (inactive)
same,GI50,SNB-19,15.6 µM (inactive)
same,GI50,MDA-MB-435,3.78 µM (inactive)
same,GI50,T47D,4.88 µM (inactive)
same,GI50,SF-268,12.3 µM (inactive)
same,GI50,LOX IMVI,6.03 µM (inactive)
same,GI50,UACC-62,12.1 µM (inactive)
same,GI50,SR,3.21 µM (inactive)
same,GI50,U-251,9.33 µM (inactive)
same,GI50,OVCAR-3,10.9 µM (inactive)
same,GI50,DU-145,12.2 µM (inactive)
same,GI50,SF-295,38 µM (inactive)
same,GI50,SK-MEL-5,19 µM (inactive)
same,GI50,OVCAR-5,18.4 µM (inactive)
same,GI50,UACC-257,17.3 µM (inactive)
same,GI50,OVCAR-4,22.2 µM (inactive)
same,GI50,786-0,4.94 µM (inactive)
same,GI50,ACHN,11.7 µM (inactive)
same,GI50,MDA-N,6.62 µM (inactive)
same,GI50,NCI-H522,6.34 µM (inactive)
same,GI50,Hs-578T,49.4 µM (inactive)
same,GI50,Malme-3M,30.1 µM (inactive)
same,GI50,MCF7,3.18 µM (inactive)
same,GI50,CCRF-CEM,3.92 µM (inactive)
same,GI50,M14,17.7 µM (inactive)
same,GI50,CAKI-1,14.5 µM (inactive)
same,GI50,EKVX,27.9 µM (inactive)
same,GI50,UO-31,15.1 µM (inactive)
same,GI50,BT-549,5.86 µM (inactive)
same,GI50,IGROV-1,20.8 µM (inactive)
same,GI50,PC-3,9.84 µM (inactive)
same,GI50,MDA-MB-231,19.9 µM (inactive)
same,GI50,RPMI-8226,3.22 µM (inactive)
same,GI50,OVCAR-8,3.62 µM (inactive)
same,GI50,TK-10,13.7 µM (inactive)
same,GI50,SF-539,5.51 µM (inactive)
same,GI50,NCI/ADR-RES,7.85 µM (inactive)
same,GI50,HT-29,14.2 µM (inactive)
same,GI50,SK-MEL-2,13.3 µM (inactive)
same,GI50,HL-60,5.12 µM (inactive)
same,GI50,NCI-H23,13.9 µM (inactive)
same,GI50,HOP-62,24.4 µM (inactive)
same,GI50,K562,3.55 µM (inactive)
CCCc1c(O)c(=O)c2c(OC)cc(OC)c3c4c(OC)cc(OC)c5c(=O)c(O)c(CCC)c(c1c23)c54,GI50,A498,0.678 µM (active)
same,GI50,RXF 393,2.79 µM (inactive)
same,GI50,A549,0.386 µM (active)
same,GI50,SN12C,1.76 µM (inactive)
same,GI50,KM12,0.458 µM (active)
same,GI50,HCT-15,0.746 µM
same,GI50,HCC 2998,1.76 µM (inactive)
same,GI50,NCI-H226,1.63 µM (inactive)
same,GI50,HCT-116,0.299 µM (active)
same,GI50,HOP-92,0.681 µM (active)
same,GI50,MOLT-4,0.0883 µM (active)
same,GI50,SK-OV-3,0.342 µM (active)
same,GI50,NCI-H460,0.301 µM (active)
same,GI50,SNB-19,0.351 µM (active)
same,GI50,MDA-MB-435,0.371 µM (active)
same,GI50,T47D,1.33 µM (inactive)
same,GI50,SF-268,0.714 µM (active)
same,GI50,LOX IMVI,0.338 µM (active)
same,GI50,UACC-62,0.396 µM (active)
same,GI50,COLO 205,2.44 µM (inactive)
same,GI50,SR,0.141 µM (active)
same,GI50,U-251,0.415 µM (active)
same,GI50,SK-MEL-28,3.13 µM (inactive)
same,GI50,OVCAR-3,1.92 µM (inactive)
same,GI50,DU-145,0.37 µM (active)
same,GI50,SF-295,0.37 µM (active)
same,GI50,SK-MEL-5,0.533 µM (active)
same,GI50,OVCAR-5,2.13 µM (inactive)
same,GI50,UACC-257,1.15 µM (inactive)
same,GI50,OVCAR-4,2.56 µM (inactive)
same,GI50,786-0,0.676 µM (active)
same,GI50,ACHN,0.617 µM (active)
same,GI50,MDA-N,0.425 µM (active)
same,GI50,NCI-H522,0.199 µM (active)
same,GI50,Hs-578T,0.468 µM (active)
same,GI50,MCF7,0.403 µM (active)
same,GI50,CCRF-CEM,0.181 µM (active)
same,GI50,M14,0.755 µM (active)
same,GI50,CAKI-1,0.394 µM (active)
same,GI50,EKVX,1.06 µM (active)
same,GI50,UO-31,0.404 µM (active)
same,GI50,BT-549,0.34 µM (active)
same,GI50,IGROV-1,0.337 µM (active)
same,GI50,PC-3,0.443 µM (active)
same,GI50,MDA-MB-231,1.56 µM (inactive)
same,GI50,RPMI-8226,0.192 µM (active)
same,GI50,OVCAR-8,0.513 µM (active)
same,GI50,TK-10,1.9 µM (inactive)
same,GI50,SF-539,0.361 µM (active)
same,GI50,SNB-75,0.183 µM (active)
same,GI50,NCI/ADR-RES,0.9 µM (active)
same,GI50,HT-29,0.729 µM (active)
same,GI50,SK-MEL-2,0.507 µM (active)
same,GI50,HL-60,1.74 µM (inactive)
same,GI50,NCI-H23,0.474 µM (active)
same,GI50,HOP-62,0.543 µM (active)
same,GI50,K562,0.195 µM (active)
same,GI50,SW-620,1.13 µM (inactive)
CCC(Nc1ncnc2nc[nH]c12)C(=O)O (stereo not given),GI50,A498,> 100 µM (inactive)
same,GI50,RXF 393,> 100 µM (inactive)
same,GI50,A549,> 100 µM (inactive)
same,GI50,SN12C,> 100 µM (inactive)
same,GI50,KM12,> 100 µM (inactive)
same,GI50,HCT-15,> 100 µM
same,GI50,HCC 2998,> 100 µM (inactive)
same,GI50,NCI-H226,> 100 µM (inactive)
same,GI50,HCT-116,> 100 µM (inactive)
same,GI50,HOP-92,> 100 µM (inactive)
same,GI50,SK-OV-3,> 100 µM (inactive)
same,GI50,NCI-H460,> 100 µM (inactive)
same,GI50,SNB-19,> 100 µM (inactive)
same,GI50,MDA-MB-435,> 100 µM (inactive)
same,GI50,T47D,> 100 µM (inactive)
same,GI50,SF-268,> 100 µM (inactive)
same,GI50,LOX IMVI,> 100 µM (inactive)
same,GI50,UACC-62,> 100 µM (inactive)
same,GI50,COLO 205,> 100 µM (inactive)
same,GI50,SR,> 100 µM (inactive)
same,GI50,U-251,> 100 µM (inactive)
same,GI50,SK-MEL-28,> 100 µM (inactive)
same,GI50,OVCAR-3,> 100 µM (inactive)
same,GI50,DU-145,> 100 µM (inactive)
same,GI50,SF-295,> 100 µM (inactive)
same,GI50,SK-MEL-5,> 100 µM (inactive)
same,GI50,OVCAR-5,> 100 µM (inactive)
same,GI50,UACC-257,> 100 µM (inactive)
same,GI50,OVCAR-4,> 100 µM (inactive)
same,GI50,786-0,> 100 µM (inactive)
same,GI50,ACHN,> 100 µM (inactive)
same,GI50,MDA-N,> 100 µM (inactive)
same,GI50,NCI-H522,> 100 µM (inactive)
same,GI50,Hs-578T,> 100 µM (inactive)
same,GI50,Malme-3M,> 100 µM (inactive)
same,GI50,MCF7,> 100 µM (inactive)
same,GI50,CCRF-CEM,> 100 µM (inactive)
same,GI50,M14,> 100 µM (inactive)
same,GI50,CAKI-1,> 100 µM (inactive)
same,GI50,EKVX,> 100 µM (inactive)
same,GI50,UO-31,> 100 µM (inactive)
same,GI50,BT-549,> 100 µM (inactive)
same,GI50,IGROV-1,> 100 µM (inactive)
same,GI50,PC-3,> 100 µM (inactive)
same,GI50,MDA-MB-231,> 100 µM (inactive)
same,GI50,RPMI-8226,> 100 µM (inactive)
same,GI50,OVCAR-8,> 100 µM (inactive)
same,GI50,TK-10,> 100 µM (inactive)
same,GI50,SNB-75,26.2 µM (inactive)
same,GI50,NCI/ADR-RES,> 100 µM (inactive)
same,GI50,HT-29,> 100 µM (inactive)
same,GI50,SK-MEL-2,> 100 µM (inactive)
same,GI50,HL-60,> 100 µM (inactive)
same,GI50,NCI-H23,> 100 µM (inactive)
same,GI50,HOP-62,> 100 µM (inactive)
same,GI50,K562,> 100 µM (inactive)
same,GI50,SW-620,> 100 µM (inactive)
